Columns and labels:
mice [1] = experiment: tail hanging test, activity on the S.N.C. (central nervous system), mice, oral; format: in vivo, mouse; conditions: 1 hour before the test; for change in vivo at 32 mg/kg / change in vivo at 128 mg/kg: Mus musculus, po, 1 h, read-out: S.N.C.: Hanging test, activity percentages compared with the controls
Method: This activity was investigated on mice using the tail hanging test in accordance with the procedure described by Thierry et al. (Behavioral and Neural Biology, 1984, 41, 180-189), which was proposed as a model for the animal for the selection of products active on the S.N.C.
The tests were carried out on batches of 10 male mice for each product and at each dose, the substances to be investigated being administered orally in aqueous solution 1 hour before the test, a control batch only receiving distilled water.
The results of the tests are given in activity percentages compared with the controls.

mice [2] = experiment: acetic acid test, analgesic activity, mice, oral; format: in vivo, mouse; conditions: for Analgesia: Acetic acid test, percentages of analgesed animals: Dose: 30 mg/kg, 30 minutes before acetic acid injection; for ED50: Mus musculus, read-out: Analgesia: Acetic acid test, ED50 (dose causing analgesia of 50% of the animals)
Method: This was investigated and determined on mice using the acetic acid test according to a procedure derived from that of Troster R. (Fed. Proc. 1959, 18, 412).
20 hours prior to the test, the animals were starved of food and drink. This was followed by the oral administration in aqueous solution of the product to be investigated at a rate of 2 ml of solution per 100 g of body weight, which was followed 30 minutes later by an intraperitoneal injection of 0.25 ml of 0.25% acetic acid solution (wt/v) maintained at 37° C. 30 minutes after this injection, the number of abdominal cramps suffered by the animals were counted for a period of 10 minutes.
The animals were considered to be analgesed when the number of cramps suffered was less than half the mean value of the cramps experienced by the controls.
The products were administered at a dose rate of 30 mg-kg^-1 and the results are given in percentages of analgesed animals. For certain products, several doses were administered and the calculation of their ED50 (dose causing analgesia of 50% of the animals) was determined in log probability units.

With `CN(C)C(C)(CO)Cc1ccc(Cl)c(Cl)c1` (racemic) [JO 1017, (±) 2-methyl-2-dimethylamino-3-(3,4-dichlorophenyl)-propanol] the change in vivo at 32 mg/kg (mice [1]; Dose: 32 mg/kg) was -65%, the change in vivo at 128 mg/kg (mice [1]; Dose: 128 mg/kg) was -85% and the “Analgesia: Acetic acid test, percentages of analgesed animals” value (“Analgesia: Acetic acid test, percentages” below) (mice [2]) was -86%. The ED50 (mice [2]) was 14 mg/kg.

`CC(N)(CO)Cc1ccc(Cl)c(Cl)c1` (racemic) [JO 1275, (±) 2-methyl-2-amino-3-(3,4-dichlorophenyl)-propanol] was tested, and the change in vivo at 32 mg/kg (mice [1]; Dose: 32 mg/kg) was -78%, the change in vivo at 128 mg/kg (mice [1]; Dose: 128 mg/kg) was -86% and the “Analgesia: Acetic acid test, percentages” value (mice [2]) was -43%.

`CNC(C)(CO)Cc1ccc(Cl)c(Cl)c1` (racemic) [JO 1276, (±) 2-methyl-2-methylamino-3-(3,4-dichlorophenyl)-propanol] was tested, and the change in vivo at 32 mg/kg (mice [1]; Dose: 32 mg/kg) was -58%, the change in vivo at 128 mg/kg (mice [1]; Dose: 128 mg/kg) was -83% and the “Analgesia: Acetic acid test, percentages” value (mice [2]) was -86%. The ED50 (mice [2]) was 8.5 mg/kg.

In the case of `CCNC(C)(CO)Cc1ccc(Cl)c(Cl)c1` (racemic) [JO 1277, (±) 2-methyl-2-ethylamino-3-(3,4-dichlorophenyl)-propanol], the “Analgesia: Acetic acid test, percentages” value (mice [2]) is reported as -43%.

With `CCN(C)C(C)(CO)Cc1ccc(Cl)c(Cl)c1` (racemic) [JO 1291, (±) 2-methyl-2-(N-methyl, N-ethyl)-amino-3-(3,4-dichlorophenyl)-propanol] the change in vivo at 32 mg/kg (mice [1]; Dose: 32 mg/kg) was -58% and the “Analgesia: Acetic acid test, percentages” value (mice [2]) was -38%.

`CN(CCc1ccccc1)C(C)(CO)Cc1ccc(Cl)c(Cl)c1` (racemic) [JO 1457, (±) 2-methyl-2-[N-methyl, N-(2-phenyl)-ethyl]-amino-3-(3,4-dichlorophenyl)-propanol] was tested, and the change in vivo at 32 mg/kg (mice [1]; Dose: 32 mg/kg) was -60%.

`CCCCCC(N)(CO)Cc1ccc(Cl)c(Cl)c1` (racemic) [JO 1562, (±) 2-pentyl-2-amino-3 (3,4-dichlorophenyl)-propanol] was tested, and the change in vivo at 32 mg/kg (mice [1]; Dose: 32 mg/kg) was -73%.

`CCCCCC(CO)(Cc1ccc(Cl)c(Cl)c1)NC` (racemic) [JO 1563, (±) 2-penthyl-2-methylamino-3-(3,4-dichlorophenyl)-propanol] showed a change in vivo at 32 mg/kg (mice [1]; Dose: 32 mg/kg) of -49% and a change in vivo at 128 mg/kg (mice [1]; Dose: 128 mg/kg) of -71%.

`CCCCCC(CO)(Cc1ccc(Cl)c(Cl)c1)N(C)C` (racemic) [JO 1564, (±) 2-pentyl-2-dimethylamino-3-(3,4-dichlorophenyl)-propanol] showed a change in vivo at 128 mg/kg (mice [1]; Dose: 128 mg/kg) of -74%.

For `CC(C)C(N)(CO)Cc1ccc(Cl)c(Cl)c1` (racemic) [JO 1579, (±) 2-isopropyl-2-amino-3 (3,4-dichlorophenyl)-propanol], the change in vivo at 128 mg/kg (mice [1]; Dose: 128 mg/kg) was -67%.

With `C=CCN(C)C(C)(CO)Cc1ccc(Cl)c(Cl)c1` (racemic) [JO 1581, (±) 21-methyl-2-(N-methyl, N-allyl)-amino-3-(3,4-dichlorophenyl)-propanol] the change in vivo at 128 mg/kg (mice [1]; Dose: 128 mg/kg) was -61%.

In the case of `CN(C)C(C)(CO)Cc1ccc(Cl)c(Cl)c1` (single isomer, unassigned; (+)) [JO 1240, (+) 2-methyl-2-dimethylamino-3-(3,4-dichlorphenyl)-propanol], the “S.N.C.: Hanging test, activity percentages compared with the controls” value (mice [1]; Dose: 32 mg/kg, 32 mg/kg) is reported as -77% and the “S.N.C.: Hanging test, activity percentages compared with the controls” value (mice [1]; Dose: 128 mg/kg, 128 mg/kg) is reported as -85%.

`CC(N)(CO)Cc1ccc(Cl)c(Cl)c1` (single isomer, unassigned; (+)) [JO 1307, (+) 2-methyl-2-amino-3-(3,4-dichlorophenyl)-propanol] was tested, and the “Analgesia: Acetic acid test, percentages” value (mice [2]) was -50%.

With `CNC(C)(CO)Cc1ccc(Cl)c(Cl)c1` (single isomer, unassigned; (+)) [JO 1308, (+) 2-methyl-2-methylamino-3-(3,4-dichlorophenyl)-propanol] the “Analgesia: Acetic acid test, percentages” value (mice [2]) was -88%.

With `CN(C)C(C)(CO)Cc1ccc(Cl)c(Cl)c1` (single isomer, unassigned; (-)) [JO 1239, (-) 2-methyl-2-dimethylamino-3-(3,4-dichlorophenyl)-propanol] the “S.N.C.: Hanging test, activity percentages compared with the controls” value (mice [1]; Dose: 32 mg/kg, 32 mg/kg) was -74%, the “S.N.C.: Hanging test, activity percentages compared with the controls” value (mice [1]; Dose: 128 mg/kg, 128 mg/kg) was -64% and the “Analgesia: Acetic acid test, percentages” value (mice [2]) was -86%. It also gave an ED50 (mice [2]) of 11 mg/kg.

`CCNC(C)(CO)Cc1ccc(Cl)c(Cl)c1` (single isomer, unassigned; (-)) [JO 1296, (-) 2-methyl-2-ethylamino-3-(3,4-dichlorophenyl)-propanol] was tested, and the “Analgesia: Acetic acid test, percentages” value (mice [2]) was -38%.

Work on `CN(C)CCCN1c2ccccc2CCc2ccc(Cl)cc21` [Clomipramine, clomipramine, reference compound] yielded a change in vivo at 32 mg/kg (mice [1]; Dose: 32 mg/kg) of -49% and a change in vivo at 128 mg/kg (mice [1]; Dose: 128 mg/kg) of -54%.

— patent US4994617A, “Aminoalcohols, their preparation process and their applications, particularly in therapeutics” (Jouveinal S.A., priority 1986, dated 1991)
